From US5750354A, “Lipoxin transport system and uses therefor” (priority 1994, dated 1998)
Entries after “also recorded” stand apart in the source; their conditions may differ.

What was measured:
[1] = target: T1, specific lipoxin receptors (Homo sapiens, UniProt P25090); assay: [3H]LXA4 ligand binding to human neutrophils
T1 sequence (P25090 1-351): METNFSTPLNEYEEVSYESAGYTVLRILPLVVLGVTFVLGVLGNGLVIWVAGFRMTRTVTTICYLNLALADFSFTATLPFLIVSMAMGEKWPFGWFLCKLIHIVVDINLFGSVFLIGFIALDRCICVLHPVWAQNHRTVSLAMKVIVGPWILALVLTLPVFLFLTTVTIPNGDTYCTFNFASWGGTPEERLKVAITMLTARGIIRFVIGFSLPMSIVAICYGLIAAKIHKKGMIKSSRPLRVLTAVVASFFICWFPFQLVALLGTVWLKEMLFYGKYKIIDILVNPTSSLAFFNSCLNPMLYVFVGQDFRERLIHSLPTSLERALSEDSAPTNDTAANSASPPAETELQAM
Method: Influx rates were calculated by fitting the data points to a single exponential equation (Eq. 1). Results have been taken from three experiments based upon duplicate determinations. […] Specific binding was taken as the difference between total and non-specific binding. […] Results are from three separate experiments, each performed in triplicate.

[2] = system: unstimulated human erythrocytes; assay: [3H]LXA4 uptake into erythrocytes; assay type: cell-based; conditions: Medium, 5 nM, 1-30 min
Method: Red Blood Cells (RBC): RBC were obtained directly from the heparinized blood of normal human donors. During repeated (four) washing steps, the uppermost portion of the cell pellets was aspirated and discarded to remove residual minor contamination of buffy coat cells.
(§1) Human red cells, lymphocytes, and platelets were isolated from peripheral blood as described under Methods. Undifferentiated HL-60 cells were grown in culture according to standard protocols. Differentiated HL-60 cells were obtained by exposing cells to 1 μM retinoic acid for 5 days in culture. After harvesting and isolation, all cells were kept in the standard medium for 1 hour at 37° C. prior to assay. […] Results represent the means±SEM of three-four separate experiments for each cell type.

[3] = system: unstimulated human lymphocytes; assay: [3H]LXA4 uptake into lymphocytes; assay type: cell-based; conditions: Medium, 5 nM, 1-30 min
Method: Lymphocvtes: The lymphocyte-rich interface layer was taken at the Ficoll-Hypaque gradient step of the neutrophil purification procedure. Platelets were removed by slow-speed centrifugation (see below) and contaminating monocytes and neutrophils by adherence to plastic Petri dishes for 1 hour at 37 ° C.
as §1

[4] = system: unstimulated human platelets; assay: [3H]LXA4 uptake into platelets; assay type: cell-based; conditions: Medium, 5 nM, 1-30 min
Method: Platelets: Platelets were purified to homogeneity from acid citrate dextrose-treated blood according to established protocols (Romano, M. and Serhan, C. N. (1992) Biochemistry 31:8269-8277).
as §1

[5] = system: undifferentiated HL-60 cells; assay: [3H]LXA4 uptake into undifferentiated HL-60 cells; assay type: cell-based, human; conditions: Medium, 5 nM, 1-30 min
Method: (§2) HL-60 Cells: HL-60 cells were seeded into RPMI medium supplemented with 100 U/ml penicillin, 100 μg/ml streptomycin, and 10% fetal calf serum (Hyclone, Logan, Utah) and grown at 37° C. in 250 ml flasks in a 5% CO2 /95% air atmosphere. Cells were induced to differentiate toward a neutrophil-like phenotype by exposure to 1 μM retinoic acid for 5 days.
as §1

[6] = system: retinoic acid-induced HL-60 cells; assay: [3H]LXA4 uptake into retinoic acid-induced HL-60 cells; assay type: cell-based, human; conditions: Medium, 5 nM, 1-30 min
Method: as §2, §1

neutrophils [7] = assay: Phagocytosis of opsonized sheep red blood cells by neutrophils; assay type: cell-based, human
Method: Neutrophils were prepared as described in the general methodology and suspended at a concentration of 10×10^6 -15×10^6 cells/ml in Hepes Hanks buffer, pH 7.4, supplemented with 1 mg/ml BSA, 1 mg/ml glucose, 0.5 mM MgCl2 and 1.0 mM CaCl2 --2H2 O.
The sheep red blood cells (SRBCs) were prepared by washing the cells with 1× veronal-buffered saline (VBS), incubating the cells with a 1:500 dilution of rabbit anti-SRBC IgG antibody at 37° C. for 15 minutes, centrifuging the cells at 2000 rpm for 5 minutes at 4° C. and washing the cells twice with 1×VBS. SRBCs were resuspended at a final concentration of 10×10^8 cells/ml.
Each component was pipetted separately to the bottom of a 12×75 mm test tube to allow thorough mixing of the components.
To each 100 μl mixture was added 15 μl of opsonized SRBCs to start the phagocytosis reaction. The tubes were vortexed and placed in a 37° C. incubator for 30 minutes. After 30 minutes, the tubes were placed on ice to stop the reaction.
Non-phagocytosed SRBCs were lysed by adding 1.0 ml of 0.83% NH4 Cl to each tube, with shaking, and centrifuging the tubes quickly at 1500 rpm for 3 minutes. The supernatant was removed and the pellets were resuspended in 30 gl of PBS. The 30 μl solution was placed onto a polylysine-coated microscope slide and after 15 minutes the excess solution was removed from the slide. The cells on the slide were fixed with 1% glutaraldehyde for 5 minutes and then the excess glutaraldehyde was removed. The cells were stained with Giemsa Stain by immersing the slide in the stain for 25 minutes, rinsing the slide with water and allowing the slide to dry overnight.
The slides were examined with a light microscope at 100×power. SRBCs which were phagocytosed by neutrophils were visible as yellow cells within blue-stained neutrophils. The results for each reaction were expressed as a phagocytic index, representing the number of SRBCs phagocytosed per 100 neutrophils. […]

[8] = RP-HPLC analysis of LXA4 integrity after exposure to inhibitors; assay type: physicochemical; conditions: 30 min of exposure
human neutrophils = conditions: not told
[9] = target: T1, specific lipoxin receptors; conditions: 4° C.; cited from earlier work
[10] = cited from earlier work
neutrophils [11] = conditions: 37° C.; cited from earlier work
protein kinase C (PKC) = conditions: about 10 nM; cited from earlier work
[12] = nM levels; cited from earlier work
[13] = system: myeloid bone marrow colony formation; conditions: 10^-10 M range, with suboptimal GM-CSF; cited from earlier work
[14] = system: human mononuclear cell-colony formation; conditions: cited from earlier work
[15] = system: polymorphonuclear leukocytes; conditions: cited from earlier work
asthmatic patients = conditions: micromolar amounts via inhalation; cited from earlier work
[16] = system: LTD4- and LTB4-mediated inflammation; conditions: in vivo; cited from earlier work
[17] = system: renal vasoconstrictor actions of LTD4; conditions: prior exposure, nM; cited from earlier work
lipoxin transport system = assay: [3H]LXA4 influx into human neutrophils (unidirectional tracer flux); conditions: combined data: Control, 0.4 mM SITS, 1 mM probenecid, Na+-free medium, high K+ medium; 5 nM LXA4

Compound: CCCCC[C@H](O)/C=C/C=C\C=C\C=C\[C@@H](O)[C@@H](O)CCCC(=O)O [LXA4, (5S,6R,15S)-trihydroxy-7,9,13-trans-11-cis-eicosatetraenoic acid]
- [3H]LXA4 Binding, total ([1]; Medium, 0.3 nM [3H]LXA4, 4° C., 5 min, no unlabeled LXA4): 1.05 ± 0.03 fmol/10^6 cells
- [3H]LXA4 Binding, non-specific ([1]; Medium, + unlabeled LXA4 0.3 μM): 0.40 ± 0.08 fmol/10^6 cells
- specific binding as share of total binding ([1]; displaced by 1,000-fold excess unlabeled LXA4): ~ 70%
- [3H]LXA4 Binding, non-specific ([1]; pHo 6.40, + unlabeled LXA4 0.3 μM): 0.39 ± 0.04 fmol/10^6 cells
- [3H]LXA4 Binding, total ([1]; pHo 6.40, no unlabeled LXA4): 1.02 ± 0.09 fmol/10^6 cells
- [3H]LXA4 Binding, non-specific ([1]; pHo 8.40, + unlabeled LXA4 0.3 μM): 0.42 ± 0.09 fmol/10^6 cells
- [3H]LXA4 Binding, total ([1]; pHo 8.40, no unlabeled LXA4): 1.19 ± 0.12 fmol/10^6 cells
- [3H]LXA4 Uptake Rate [2]: 0.0014 ± 0.0006 fmol/10^6 cells/min
- [3H]LXA4 Uptake Rate [3]: 0.0019 ± 0.0048 fmol/10^6 cells/min
- [3H]LXA4 Uptake Rate [4]: -0.0003 ± 0.0015 fmol/10^6 cells/min
- [3H]LXA4 Uptake Rate [5]: 0.11 ± 0.02 fmol/10^6 cells/min
- [3H]LXA4 Uptake Rate [6]: 0.73 ± 0.15 fmol/10^6 cells/min
- effect on neutrophil phagocytosis, phagocytic index (neutrophils [7]; 100 nM or 1000 nM, pH 7.4, 37° C., 30 minutes): more effective at inhibiting phagocytosis than LXB4; also recorded: inhibit phagocytosis
- pH-dependence of inhibition of neutrophil phagocytosis (neutrophils [7]; extracellular pH 6.4, 7.4, 8.4): increases as the extracellular pH is decreased
- integrity after exposure to DISA, PCP, UK-5099, and mersalyl [8]: preservation of the integrity
- efflux final value (relative cell content) (human neutrophils): 0.54±0.03
- binding sites [9]: ~ 1830 sites/cell
- half-time for binding [9]: .15 s
- pK' of the carboxylic acid moiety [10]: ~ 3.8
- metabolic transformation in neutrophils (neutrophils [11]): not subject to metabolic transformation
- effect on PKC activity (protein kinase C (PKC)): enhance
- vasodilation [12]: elicit prompt vasodilation
- cell proliferation / colony formation [13]: stimulates cell proliferation
- mononuclear cell-colony formation [14]: stimulates
- chemotaxis [15]: inhibits chemotaxis
- bronchoconstriction (asthmatic patients): blocks bronchoconstriction
- leukotriene-mediated inflammation [16]: inhibits
- renal vasoconstriction by LTD4 [17]: blocks renal vasoconstrictor actions
- final [3H]LXA4 uptake (combined data) (lipoxin transport system): 7.26±0.26 fmol/10^6 cells
- initial [3H]LXA4 influx rate (combined data) (lipoxin transport system): 0.57±0.09 fmol/10^6 cells/min
